Publication PMC10107299, “Neutralizing the Impact of the Virulence Factor LecA from Pseudomonas aeruginosa on Human Cells with New Glycomimetic Inhibitors” (Angewandte Chemie (International Ed. in English), 2023)
Like-named read-outs stand apart in the source and are kept apart here.

How the values were obtained:
[1] = In vitro metabolic stability, mouse liver microsomes; type: in vitro ADME; conditions: N=3, read-out: CLint MLM
Experimental: (§1) Acetonitrile and caffeine were dispensed using a Mantis Formulatrix. Then samples were centrifuged for 20 min at 2.270 x g at 4 °C and the supernatants were transferred to 96-well Greiner V-bottom plates. Peak areas of each compound and of the internal standard were analyzed using the MultiQuant 3.0 software (AB Sciex). Peak areas of the respective compound were normalized to the internal standard peak area and to the respective peak areas at time point 0 min: (C/D)/(A/B) with A: peak area of the compound at time point 0 min, B: peak area of the internal standard at time point 0 min, C: peak area of the compound at the respective time point, D: peak area of the internal standard at the respective time point.
(§2) In vitro metabolic stability assay
(§3) Liver microsomes (mouse and human, Thermo Fisher) were thawed slowly on ice. 20 mg/mL of microsomes, 2 µL of a 100 µM solution of every compound and 183 µL of 100 mM phosphate buffer were incubated 5 min at 37 °C in a water bath. Reactions were initiated using 10 µL of 20 mM NADPH (CarlRoth). Samples were incubated in three replicates at 37 °C under gentle agitation at 150 rpm. At 0, 5, 15, 30, and 60 min, reactions were terminated by the addition of 180 µL acetonitrile using a Mantis Formulatrix dispenser. Samples were vortexed for 5 min using an Eppendorf MixMate vortex mixer and centrifuged at 2.270 x g for 20 min at 4 °C. The supernatants were transferred to 96-well Greiner V-bottom plates, sealed and analyzed according to the section HPLC-MS analysis. Peak areas of the respective time point of the compounds were normalized to the peak area at time point 0 min. Then half-life was calculated using linear regression (Microsoft Excel). Clint [µL/min/mg protein] was calculated using the following formula: […]

[2] = In vitro metabolic stability, human liver microsomes; type: in vitro ADME; conditions: N=3, read-out: CLint HLM
Experimental: We then determined the in vitro metabolic stability in plasma and liver microsomes as well as plasma protein binding for a selected subset of the synthesized LecA inhibitors, i.e. D1, D2, H1, H2 and L2 and compared them to the parent bisacylhydrazone 14 (Table 2). […] The metabolic stability of the compounds differed in presence of human liver microsomes (HLM). Introduction of a pyridine ring decreased stability (H1 CLint=28.6 μL min^−1/mg protein, H2 CLint=32.5 μL min^−1/mg protein) compared to the benzene analogues (D1 CLint=21.9 μL min^−1/mg protein, D2 CLint=21.0 μL min^−1/mg protein) and to the parent acylhydrazone 14 (CLint=19.6 μL min^−1/mg protein). […]
as §1, with “mixer (Eppendorf). Acetonitrile” for “Acetonitrile”
as §2, §3

in vitro = in vitro ADME; conditions: pH 7.4, 37 °C
Experimental: Then, we analyzed the stability of the compounds in plasma. […] The observed increase in plasma stability of the tested amide derivatives compared to bisacylhydrazone 14 supports our design hypothesis for the isosteric replacement of the bisacylhydrazone linking motif. […]
Each compound dissolved in DMSO was added to mouse plasma (pH 7.4, 37 °C) or to human plasma (pH 7.4, 37 °C) to yield a final concentration of 1 µM. In addition, procaine and procainamide (dissolved in DMSO) were added to mouse plasma or to human plasma (pH 7.4, 37 °C) to yield a final concentration of 1 µM. Procaine served as positive control as it is unstable in mouse plasma. Procainamide served as negative control as it is stable in mouse plasma. The samples were incubated for 0 min, 15 min, 30 min, 60 min, 90 min, 120 min and 240 min at 37 °C. At each time point, 10 µl of the respective sample was extracted with 90 µL acetonitrile containing 12.5 ng/mL caffeine as internal standard for 5 min at 2000 rpm on a MixMate vortex […]
as §1, with “mixer (Eppendorf). Acetonitrile” for “Acetonitrile”, “point. […]” for “point.”
2 hours at 800 rpm on an Eppendorf MixMate vortex-mixer. Then samples were withdrawn from the respective chambers. To 25 µL of each dialysis sample, 25 µL of plasma and to 25 µL of plasma sample, 25 µL of dialysis buffer was added. Then 150 µL ice-cold extraction solvent (ACN/H2O (90:10) containing 12.5 ng/mL caffeine as internal standard) was added. Samples were incubated for 30 min on ice. Then samples were centrifuged at 4 °C at 2270 x g for 10 min.

H1299 cells = test: Cell proliferation (MTT) cytotoxicity assay; type: cell-based, human; conditions: 24 h; for Cytotoxicity on H1299 cells: 10–100 μM; for Inhibition of cell proliferation: 500 and 750 μM
Experimental: Additionally, the cytotoxicity of sulfonated ligands K2 and L2 on H1299 cells was evaluated prior to the invasion assay (Figure S12). […]
Cell proliferation (MTT) assay
The MTT assay (MTT Cell Proliferation Kit, Roche Holding AG, Basel, Switzerland) was used to evaluate the cytotoxicity of inhibitors on H1299 cells. 3.5 x 10^4 cells per well were transferred to a 96-well plate with a U-bottom. The cells were centrifuged at 1600 x g for 3 min at room temperature. The cell pellet was resuspended in 100 μL of inhibitor solutions (1–750 µM) and transferred to a 96-well flat-bottomed plate. The cells were incubated for 24 h at 37 °C.
Subsequently, 10 μL of MTT labelling solution was added to each well and the cells were incubated for another 4 h at 37 °C. Afterwards, 100 μL of the kit solubilization reagent were added to each well and the plate was incubated at 37 °C overnight. The next day, the absorbance of the samples was measured at 550 nm using a BioTek microplate reader (BioTek Instruments

[3] = human plasma, read-out: Plasma stability t1/2 Human
[4] = mouse plasma, read-out: Plasma stability t1/2 Mouse

Row | Compound | microsomal CLint at 1 µM [1] [µL/min/mg] | microsomal CLint at 1 µM [2] [µL/min/mg] | half-life at 1 µM (in vitro; [3]) [h] | half-life at 1 µM (in vitro; [4]) [h] | Cytotoxicity on H1299 cells (H1299 cells) | Inhibition of cell proliferation (H1299 cells) [%]
1 | O=C(/C=C/c1ccc(O[C@@H]2O[C@H](CO)[C@H](O)[C@H](O)[C@H]2O)cc1)Nc1ccc(OCCOc2ccc(NC(=O)/C=C/c3ccc(O[C@@H]4O[C@H](CO)[C@H](O)[C@H](O)[C@H]4O)cc3)cc2)cc1 [Compound D1] | 22.4 | 21.9 | 3.73 | 3 | – | –
2 | O=C(CCc1ccc(O[C@@H]2O[C@H](CO)[C@H](O)[C@H](O)[C@H]2O)cc1)Nc1ccc(OCCOc2ccc(NC(=O)CCc3ccc(O[C@@H]4O[C@H](CO)[C@H](O)[C@H](O)[C@H]4O)cc3)cn2)nc1 [Compound H2] | 6.8 | 32.5 | 3.58 | 1.35 | – | –
3 | O=C(CCc1ccc(O[C@@H]2O[C@H](CO)[C@H](O)[C@H](O)[C@H]2O)cc1)Nc1ccc(OCCOc2ccc(NC(=O)CCc3ccc(O[C@@H]4O[C@H](CO)[C@H](O)[C@H](O)[C@H]4O)cc3)cc2)cc1 [Compound D2] | 29.6 | 21 | 2.21 | 3.04 | – | –
4 | Cc1ccc(NC(=O)CCc2ccc(O[C@@H]3O[C@H](CO)[C@H](O)[C@H](O)[C@H]3O)cc2)cc1S(=O)(=O)O [Compound K2] | – | – | – | – | did not exhibit significant toxicity | > 50
5 | O=C(CCc1ccc(O[C@@H]2O[C@H](CO)[C@H](O)[C@H](O)[C@H]2O)cc1)Nc1ccc(CCc2ccc(NC(=O)CCc3ccc(O[C@@H]4O[C@H](CO)[C@H](O)[C@H](O)[C@H]4O)cc3)cc2S(=O)(=O)O)c(S(=O)(=O)O)c1 [Compound L2] | 29.5 | 9.2 | > 4 | > 4 | did not exhibit significant toxicity | > 50
6 | O=C(/C=C/c1ccc(O[C@@H]2O[C@H](CO)[C@H](O)[C@H](O)[C@H]2O)cc1)Nc1ccc(OCCOc2ccc(NC(=O)/C=C/c3ccc(O[C@@H]4O[C@H](CO)[C@H](O)[C@H](O)[C@H]4O)cc3)cn2)nc1 [Compound H1] | 17.5 | 28.6 | > 4 | > 3 | – | –
